In PMC11855827, “High-Throughput Screening of Five Compound Libraries for Anthelmintic Activity and Toxicity Leads to the Discovery of Two Flavonoid Compounds” (International Journal of Molecular Sciences, 2025):
Read-outs that look alike come from different tables or passages of the source.

System: C. elegans
Assay: microbe, parasite or virus in culture
Settings: Caenorhabditis elegans
[1] = 0 h, read-out: Percentage of motility inhibition 0 h, Table S2, C. elegans SS assay, 110 μM, 0 h, averages of 4 data points
[2] = 24 h, read-out: Percentage of motility inhibition 24 h, Table S2, C. elegans SS assay, 110 μM, 24 h, averages of 4 data points
[3] = 0 h, read-out: Percentage of motility inhibition 0 h
[4] = 24 h, read-out: Percentage of motility inhibition 24 h
[5] = 0 h, read-out: Inhibition (%) 110 μM (0 h), C. elegans L4 motility, 110 μM, 0 h, mean ± SD of four experiments
[6] = 24 h, read-out: Inhibition (%) 110 μM (24 h), C. elegans L4 motility, 110 μM, 24 h, mean ± SD of four experiments

Row | Structure (SMILES) | inhibition at 110 µM [1] [%] | inhibition at 110 µM [2] [%] | further results
1 | C[C@@H]1CC[C@@]2(NC1)O[C@H]1C[C@H]3[C@@H]4CC=C5C[C@@H](O[C@@H]6O[C@H](CO)[C@@H](O[C@@H]7O[C@@H](C)[C@H](O)[C@@H](O)[C@H]7O)[C@H](O)[C@H]6O[C@@H]6O[C@@H](C)[C@H](O)[C@@H](O)[C@H]6O)CC[C@]5(C)[C@H]4CC[C@]3(C)[C@H]1[C@@H]2C [Solamargine] | 0 | 0 | 
2 | COc1cc(O)ccc1/C=C/C(=O)c1ccc(O)cc1 [Echinatin] | 17 | 10 | 
3 | Cc1ccc2c(Br)cc(Br)c(OC(=O)c3ccccc3)c2n1 [Broxaldine] | 26 | 0 | 
4 | O=c1cc(-c2ccc(O)cc2)oc2c([C@@H]3O[C@H](CO)[C@@H](O)[C@H](O)[C@H]3O)c(O)cc(O)c12 [Vitexin] | 39 | 0 | 
5 | CN1C(=O)/C(=C2/C(=O)Nc3ccccc32)c2ccccc21 [Meisoindigo] | 0 | 0 | 
6 | C[C@@H]1CC[C@H]2C(C)(C)[C@H]3C[C@@]12CC[C@@]3(C)O [Cedrol] | 8 | 13 | 
7 | O=C(O)c1cc(=O)c2ccccc2[nH]1 [Transtorine] |  | 0 | 
8 | C=C(C)[C@@H]1CC[C@]2(C(=O)O)CC[C@]3(C)[C@H](CC[C@@H]4[C@@]5(C)CC[C@@H](O)C(C)(C)[C@@H]5CC[C@]43C)[C@@H]12 [Epibetulinic acid] | 14 | 17 | 
9 | COC1=C[C@]23CCCN2CCc2cc4c(cc2[C@@H]3[C@@H]1O)OCO4 [Cephalotaxine] | 0 | 0 | 
10 | C[C@@H]1C(=O)O[C@H]2C[C@@]34[C@H]5C[C@@H](C(C)(C)C)[C@]36[C@@H](OC(=O)[C@@H]6O)O[C@@]4(C(=O)O5)[C@]21O [Ginkgolide A] | 2 | 8 | 
11 | CC=C1CN(C)C2Cc3c([nH]c4ccccc34)C(c3cc4[nH]c5c(c4cc3OC)CCN3CC4CC(CC)C3C5(C(=O)OC)C4)CC1C2C(=O)OC (stereo not drawn) [Voacamine] | 0 | 0 | 
12 | C=C(CC[C@@H](C(=O)O)[C@H]1[C@H](O)C[C@@]2(C)C3=CC[C@@H](C(=C)C)[C@](C)(CCC(=O)O)C3=CC[C@]12C)C(C)C [Poricoic acid A] |  |  | inhibition at 110 µM [3]: 2%; inhibition at 110 µM [4]: 8%
13 | C[C@]1(Cn2ccnn2)[C@H](C(=O)O)N2C(=O)C[C@H]2S1(=O)=O [Tazobactam] | 16 | 21 | 
14 | C=C[C@@]1(C)CC[C@H]2C(=CC[C@@H]3[C@]2(C)CCC[C@@]3(C)C(=O)O)C1 [Isopimaric acid] |  |  | inhibition at 110 µM [3]: 0%; inhibition at 110 µM [4]: 14%
15 | O=C(Nc1cc(Cl)cc(Cl)c1O)c1c(O)c(Cl)cc(Cl)c1Cl [Oxyclozanide, reference compound] |  |  | inhibition at 110 µM [5]: 10 ± 9%; inhibition at 110 µM [6]: 93 ± 5%
16 | CNC1CCCN(c2c(F)cc3c(=O)c(C(=O)O)cn(C4CC4)c3c2OC)C1 (stereo not drawn) [Balofloxacin] | 0 | 20 | 
17 | COC(=O)[C@]12CCCC(C)(C)[C@@H]1CCc1cc(C(C)C)c(O)c(O)c12 [Methyl carnosate] | 0 | 63 | 
18 | C[C@@H]1O[C@@H](O[C@H]2CC[C@]3(C=O)[C@H]4CC[C@]5(C)[C@@H](C6=CC(=O)OC6)CC[C@]5(O)[C@@H]4CC[C@]3(O)C2)[C@H](O)[C@H](O)[C@H]1O [Convallatoxin] | 2 | 3 | 
19 | Cc1cccc(N(C)C(=S)Oc2ccc3ccccc3c2)c1 [Tolnaftate] | 25 | 26 | 
20 | CC(C)=CCC[C@](C)(O[C@@H]1O[C@H](CO)[C@@H](O)[C@H](O)[C@H]1O)[C@H]1CC[C@]2(C)[C@@H]1[C@H](O)C[C@@H]1[C@@]3(C)CC[C@H](O)C(C)(C)[C@@H]3[C@@H](O)C[C@]12C [Ginsenoside F1] | 10 | 2 | 
21 | CC(C)CN(C[C@@H](O)[C@H](Cc1ccccc1)NC(=O)O[C@H]1CO[C@H]2OCC[C@H]21)S(=O)(=O)c1ccc(N)cc1 [Darunavir] |  |  | inhibition at 110 µM [3]: 39%; inhibition at 110 µM [4]: 26%
22 | O[C@H]1[C@H](O)[C@@H](O)[C@H](O)[C@@H](O)[C@H]1O [i-Inositol] | 0 | 0 | 
23 | O=C(O)CCC(=O)Nc1ccc(S(=O)(=O)Nc2nccs2)cc1 [Succinylsulfathiazole] | 31 | 17 | 
24 | COc1cc2c(cc1O)C[C@H]1c3c(cc(O)c(OC)c3-2)CCN1C [Boldine] | 0 | 0 | 
25 | CC(=O)O[C@]12CCC(C(=O)O)=CC[C@]13CC[C@H]2[C@@](C)(/C=C/C=C(\C)C(=O)O)OC3=O [Pseudolaric Acid C2] | 0 | 0 | 
26 | Cc1cc(C(C#N)c2ccc(Cl)cc2)c(Cl)cc1NC(=O)c1cc(I)cc(I)c1O (stereo not drawn) [Closantel] | 4 | 48 | 

Row | Structure (SMILES) | inhibition at 110 µM [1] [%] | inhibition at 110 µM [2] [%] | further results
27 | CCC(C)n1ncn(-c2ccc(N3CCN(c4ccc(OCC5COC(Cn6cncn6)(c6ccc(Cl)cc6Cl)O5)cc4)CC3)cc2)c1=O (stereo not drawn) [Itraconazole] | 18 | 22 | 
28 | Nc1nc2c(ncn2COCCO)c(=O)[nH]1 [Acyclovir] | 17 | 12 | 
29 | O=c1ncnc2n([C@H]3O[C@@H](CO)[C@H](O)[C@@H]3O)[nH]cc1-2 (stereo in doubt) [Allopurinol riboside] | 0 | 0 | 
30 | O=C(C[C@H]1NCCC[C@@H]1O)Cn1cnc2ccccc2c1=O [Febrifugine] | 0 | 0 | 
31 | CC(=O)[C@H]1CC[C@H]2[C@@H]3CCC4=CC(=O)CC[C@]4(C)[C@H]3CC[C@]12C [Progesterone] | 0 | 12 | 
32 | COc1ccc(CCC(=O)c2c(O)cc(O[C@@H]3O[C@H](CO)[C@@H](O)[C@H](O)[C@H]3O[C@@H]3O[C@@H](C)[C@H](O)[C@@H](O)[C@H]3O)cc2O)cc1O [Neohesperidin dihydrochalcone] | 10 | 2 | 
33 | O=C1C=CC[C@@H]2[C@H]3CCCN4CCC[C@@H](CN12)[C@@H]34 [Sophocarpine] | 11 | 9 | 
34 | COc1ccc(-c2oc3cc(O)cc(O)c3c(=O)c2O)cc1O [Tamarixetin] | 20 | 10 | 
35 | O=C1NCN(c2ccccc2)C12CCN(CCCOc1ccc(F)cc1)CC2 [Spiramide] | 49 | 6 | 
36 | COc1cc(C2Oc3cc([C@H]4Oc5cc(O)cc(O)c5C(=O)[C@@H]4O)ccc3OC2CO)ccc1O (stereo partly drawn) [Silibinin] | 0 | 0 | 
37 | O=c1cc(-c2ccc(O)cc2)oc2cc(O[C@@H]3O[C@H](CO)[C@@H](O)[C@H](O)[C@H]3O)c([C@@H]3O[C@H](CO)[C@@H](O)[C@H](O)[C@H]3O)c(O)c12 [Saponarin] | 1 | 1 | 
38 | C[C@]12CC[C@@H]3c4ccc(O)cc4CC[C@H]3[C@@H]1CC[C@@H]2O [Estradiol] | 1 | 2 | 
39 | O=C(O)CNCC(=O)O [Iminodiacetic acid] | 15 | 0 | 
40 | C[C@@H](c1ncncc1F)[C@](O)(Cn1cncn1)c1ccc(F)cc1F [Voriconazole] | 19 | 0 | 
41 | C[C@@H]1CC[C@@]2(NC1)O[C@H]1C[C@H]3[C@@H]4CC=C5C[C@@H](O)CC[C@]5(C)[C@H]4CC[C@]3(C)[C@H]1[C@@H]2C [Solasodine] | 12 | 20 | 
42 | CO[C@H]1/C=C/O[C@@]2(C)Oc3c(C)c(O)c4c(c3C2=O)C2=NC3(CCN(CC(C)C)CC3)NC2=C(NC(=O)/C(C)=C\C=C\[C@H](C)[C@H](O)[C@@H](C)[C@@H](O)[C@@H](C)[C@H](OC(C)=O)[C@@H]1C)C4=O [Rifabuti n] | 41 | 2 | 
43 | COc1cc(O)c2c(c1)O[C@H](c1ccc(O)cc1)CC2=O [Sakuranetin] | 19 | 18 | 
44 | c1ccc(C2CN3CCSC3=N2)cc1 (stereo not drawn) [Tetramisole, reference compound] |  |  | inhibition at 110 µM [5]: 78 ± 2%; inhibition at 110 µM [6]: 82 ± 3%
45 | C=C(C)[C@H](CC=C(C)C)Cc1c(O)cc(O)c2c1O[C@H](c1ccc(O)cc1O)CC2=O [Sophoraflavanone G] |  |  | inhibition at 110 µM [3]: 55%; inhibition at 110 µM [4]: 4%
46 | O=C1Nc2ccccc2/C1=C1/Nc2ccccc2C1=O [Indirubin] |  | 6 | 
47 | CC(C1CC1)C(O)(Cn1cncn1)c1ccc(Cl)cc1 (stereo not drawn) [Cyproconazole] | 42 | 0 | 
48 | CO[C@H]1/C=C/O[C@@]2(C)Oc3c(C)c(O)c4c(O)c(c(/C=N/N5CCN(C6CCCC6)CC5)c(O)c4c3C2=O)NC(=O)/C(C)=C\C=C\[C@H](C)[C@H](O)[C@@H](C)[C@@H](O)[C@@H](C)[C@H](OC(C)=O)[C@@H]1C [Rifapen tine] | 9 | 13 | 
49 | COc1ccc(-c2cc(=O)c3c(O)c(OC)c(O)cc3o2)cc1 [Pectolinarigenin] | 4 | 0 | 
50 | O=C1C=C2C=C[C@@H]3C[C@@]2(O1)[C@H]1CCCCN31 [(‐)‐Securinine] | 0 | 12 | 
51 | CC(=O)O[C@]12CCC(C)=CC[C@]13CC[C@H]2[C@@](C)(/C=C/C=C(\C)C(=O)O)OC3=O [Pseudolaric Acid A] | 6 | 13 | 
52 | COc1ccc2c(c1OC)CN(C)CCc1cc3c(cc1C(=O)C2)OCO3 [Allocryptopine] | 11 | 18 | 
